Assay results reported in PMC11659888, “Structural Evidence for DUF512 as a Radical S-Adenosylmethionine Cobalamin-Binding Domain” (ACS Bio & Med Chem Au, 2024).

Legend:
[1] = molecular target: T1, pfDUF512 (Pyrococcus furiosus, UniProt Q8U2I5); experiment: X-ray crystal structure; type: binding; settings: 5 mM SAH in crystallisation, anoxic, with [4Fe-4S], cobalamin and 5'-dA; poor density for ribosyl and methionyl moieties
T1 construct: gene PF0849; full length, 358 residues (1-357 modelled); E. coli, SUMO tag cut with Ulp1, one extra N-terminal His left; monomer; [4Fe-4S]
T1 sequence (Q8U2I5 1-357): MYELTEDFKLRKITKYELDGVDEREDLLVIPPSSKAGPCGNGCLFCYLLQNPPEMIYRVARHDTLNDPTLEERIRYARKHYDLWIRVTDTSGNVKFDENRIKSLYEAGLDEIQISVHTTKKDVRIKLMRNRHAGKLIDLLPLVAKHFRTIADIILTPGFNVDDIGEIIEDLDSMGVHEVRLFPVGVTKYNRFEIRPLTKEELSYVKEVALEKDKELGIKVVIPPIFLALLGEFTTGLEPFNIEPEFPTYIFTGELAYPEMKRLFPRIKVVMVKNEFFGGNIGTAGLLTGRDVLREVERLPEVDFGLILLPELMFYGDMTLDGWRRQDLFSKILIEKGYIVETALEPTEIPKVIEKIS

[2] = molecular target: T1, pfDUF512; experiment: methylation of bound cobalamin, MeCbl and […]'-dA detected; type: biochemical; settings: titanium(III) citrate, 5 min
[3] = molecular target: T2, acDUF512 (Acinetobacter sp. CAG:196_36_41, UniProt Z9P1A2K5F3); experiment: methylation of bound cobalamin, MeCbl, SAH and […]'-dA quantified; type: biochemical; settings: titanium(III) citrate, 5 min
T2 construct: full-length gene, E. coli, SUMO tag cut with Ulp1; monomer; FeS cluster
T2 sequence (Z9P1A2K5F3 1-422): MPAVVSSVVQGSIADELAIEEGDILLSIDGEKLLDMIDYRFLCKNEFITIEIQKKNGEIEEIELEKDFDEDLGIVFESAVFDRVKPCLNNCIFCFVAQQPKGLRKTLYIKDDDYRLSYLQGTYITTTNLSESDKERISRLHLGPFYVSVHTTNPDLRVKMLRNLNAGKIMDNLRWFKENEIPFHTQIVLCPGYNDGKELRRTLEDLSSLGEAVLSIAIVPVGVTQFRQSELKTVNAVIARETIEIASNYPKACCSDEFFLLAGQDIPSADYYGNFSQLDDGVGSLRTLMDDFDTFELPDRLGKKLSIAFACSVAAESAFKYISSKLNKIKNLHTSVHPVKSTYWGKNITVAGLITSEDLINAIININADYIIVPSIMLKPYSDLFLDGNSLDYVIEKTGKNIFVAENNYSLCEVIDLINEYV

[4] = molecular target: T3, csDUF512 (Clostridium sporogenes, UniProt Z9WP26CAS3); experiment: as above; type: biochemical; settings: titanium(III) citrate, 5 min
T3 construct: full length, 444 residues (1-443 modelled); E. coli, SUMO tag cut with Ulp1; monomer; [4Fe-4S]; codon-optimized gene
T3 sequence (Z9WP26CAS3 1-443): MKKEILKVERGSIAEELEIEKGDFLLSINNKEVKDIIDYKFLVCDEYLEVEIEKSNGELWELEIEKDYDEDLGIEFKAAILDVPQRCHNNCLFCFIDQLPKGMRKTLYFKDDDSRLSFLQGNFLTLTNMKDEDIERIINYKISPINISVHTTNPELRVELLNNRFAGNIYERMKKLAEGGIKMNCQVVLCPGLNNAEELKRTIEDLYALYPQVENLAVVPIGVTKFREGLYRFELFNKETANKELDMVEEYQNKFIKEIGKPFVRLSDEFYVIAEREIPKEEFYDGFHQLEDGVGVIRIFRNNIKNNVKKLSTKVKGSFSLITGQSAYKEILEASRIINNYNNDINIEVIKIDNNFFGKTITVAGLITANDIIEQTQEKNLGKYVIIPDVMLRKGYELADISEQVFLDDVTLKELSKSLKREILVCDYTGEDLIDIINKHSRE

Nc1ncnc2c1ncn2[C@@H]1O[C@H](CSCC[C@H](N)C(=O)O)[C@@H](O)[C@H]1O [SAH, S-adenosylhomocysteine]
X-ray crystal structure [1]: pfDUF512 was crystallized under anoxic conditions in the presence of SAH

C[S+](CC[C@H](N)C(=O)O)C[C@H]1O[C@@H](n2cnc3c(N)ncnc32)[C@H](O)[C@@H]1O (stereo partly shown) [SAM, S-adenosylmethionine]
methylation of bound cobalamin, MeCbl and 5'-dA detected [2]: Upon incubating the four DUF512 proteins with SAM and titanium(III) citrate | methylation of bound cobalamin, MeCbl, SAH and 5'-dA quantified [3]: Upon incubating the four DUF512 proteins with SAM and titanium(III) citrate | methylation of bound cobalamin, MeCbl, SAH and 5'-dA quantified [4]: Upon incubating the four DUF512 proteins with SAM and titanium(III) citrate
